In ChEMBL document CHEMBL4190388, “Discovery and Optimization of Indolyl-Containing 4-Hydroxy-2-Pyridone Type II DNA Topoisomerase Inhibitors Active against Multidrug Resistant Gram-negative Bacteria” (J Med Chem, 2018):
≈ marks a conversion by molar mass, not a printed value.

Key:
Assay type in all cases: functional
Escherichia coli [1] = experiment: Antibacterial activity against fluoroquinolone resistant Escherichia coli SKM18 by CLSI M100-S17 protocol based method
Escherichia coli [2] = experiment: Antibacterial activity against wild type Escherichia coli ATCC 25922 by CLSI M100-S17 protocol based method
Escherichia coli [3] = experiment: Antibacterial activity against quinolone resistance Escherichia coli isolate ELZ4251 harboring gyrA/parC mutant by CLSI M100-S17 protocol based method
Acinetobacter baumannii [4] = experiment: Antibacterial activity against wild type Acinetobacter baumannii ATCC BAA-747 by CLSI M100-S17 protocol based method
Acinetobacter baumannii [5] = experiment: Antibacterial activity against fluoroquinolone resistant Acinetobacter baumannii isolate MMX2240 by CLSI M100-S17 protocol based method
Klebsiella pneumoniae = experiment: Antibacterial activity against wild type Klebsiella pneumoniae ATCC 35657 by CLSI M100-S17 protocol based method
Escherichia coli [6] = experiment: Antibacterial activity against wild type Escherichia coli ATCC 25922 in presence of HSA by CLSI M100-S17 protocol based method
Escherichia coli [7] = experiment: Selectivity ratio of MIC for wild type Escherichia coli ATCC 25922 in presence of HSA to MIC for wild type Escherichia coli ATCC 25922

CCNCc1cc2cc3c(cc2n1C)SCCc1c-3[nH]c(=O)c(C(=O)O)c1O
MIC (Escherichia coli [1]): 0.5 µg/mL (≈ 1.25 µM)
MIC (Escherichia coli [2]): 1 µg/mL (≈ 2.5 µM)
MIC (Escherichia coli [3]): 1.6 µg/mL (≈ 4.01 µM)
MIC (Acinetobacter baumannii [4]): 3.9 µg/mL (≈ 9.76 µM)
MIC (Acinetobacter baumannii [5]): 3.9 µg/mL (≈ 9.76 µM)
MIC (Klebsiella pneumoniae): 1 µg/mL (≈ 2.5 µM)
MIC (Escherichia coli [6]): 15.6 µg/mL
Ratio (Escherichia coli [7]): 8 - 16

CCNCc1cc2cc3c(cc2n1C)NCCc1c-3[nH]c(=O)c(C(=O)O)c1O
MIC (Escherichia coli [1]): 3.9 µg/mL (≈ 10.2 µM)
MIC (Escherichia coli [2]): 15.6 µg/mL (≈ 40.8 µM)
MIC (Escherichia coli [3]): > 62.5 µg/mL
MIC (Acinetobacter baumannii [4]): > 25 µg/mL
MIC (Acinetobacter baumannii [5]): > 25 µg/mL
MIC (Klebsiella pneumoniae): 6.3 µg/mL (≈ 16.5 µM)

COC1CCN(Cc2cc3cc4c(cc3n2C)OCCc2c-4[nH]c(=O)c(C(=O)O)c2O)C1 (centres undefined)
MIC (Escherichia coli [1]): 2 µg/mL (≈ 4.55 µM)
MIC (Escherichia coli [2]): 3.9 µg/mL (≈ 8.87 µM)
MIC (Acinetobacter baumannii [4]): 3.9 µg/mL (≈ 8.87 µM)
MIC (Acinetobacter baumannii [5]): 7.8 µg/mL (≈ 17.7 µM)
MIC (Klebsiella pneumoniae): 15.6 µg/mL (≈ 35.5 µM)
MIC (Escherichia coli [6]): 7.8 µg/mL

CNCc1cc2cc3c(cc2n1C)OCCc1c-3[nH]c(=O)c(C(=O)O)c1O
MIC (Escherichia coli [1]): 0.78 µg/mL (≈ 2.11 µM)
MIC (Escherichia coli [2]): 1.6 µg/mL (≈ 4.33 µM)
MIC (Escherichia coli [3]): > 12.5 µg/mL
MIC (Acinetobacter baumannii [4]): 12.5 µg/mL (≈ 33.8 µM)
MIC (Acinetobacter baumannii [5]): > 12.5 µg/mL
MIC (Klebsiella pneumoniae): 1.6 µg/mL (≈ 4.33 µM)
MIC (Escherichia coli [6]): 3.1 µg/mL

CN(C)Cc1cc2cc3c(cc2n1C)SCCc1c-3[nH]c(=O)c(C(=O)O)c1O
MIC (Escherichia coli [1]): 2 µg/mL (≈ 5.01 µM)
MIC (Escherichia coli [2]): 2 µg/mL (≈ 5.01 µM)
MIC (Acinetobacter baumannii [4]): 2 µg/mL (≈ 5.01 µM)
MIC (Acinetobacter baumannii [5]): 3.9 µg/mL (≈ 9.76 µM)
MIC (Klebsiella pneumoniae): 2 µg/mL (≈ 5.01 µM)
MIC (Escherichia coli [6]): 31.2 µg/mL

COC1CCN(Cc2cc3cc4c(cc3n2C)CCCc2c-4[nH]c(=O)c(C(=O)O)c2O)C1 (centres undefined)
MIC (Escherichia coli [1]): 2 µg/mL (≈ 4.57 µM)
MIC (Escherichia coli [2]): 1.6 µg/mL (≈ 3.66 µM)
MIC (Acinetobacter baumannii [4]): 3.1 µg/mL (≈ 7.09 µM)
MIC (Acinetobacter baumannii [5]): 3.1 µg/mL (≈ 7.09 µM)
MIC (Klebsiella pneumoniae): 3.1 µg/mL (≈ 7.09 µM)
MIC (Escherichia coli [6]): 3.1 µg/mL

CC(C)NCc1cc2cc3c(cc2n1C)SCCc1c-3[nH]c(=O)c(C(=O)O)c1O
MIC (Escherichia coli [1]): 1 µg/mL (≈ 2.42 µM)
MIC (Escherichia coli [2]): 2 µg/mL (≈ 4.84 µM)
MIC (Escherichia coli [3]): 3.1 µg/mL (≈ 7.5 µM)
MIC (Acinetobacter baumannii [4]): 2 µg/mL (≈ 4.84 µM)
MIC (Acinetobacter baumannii [5]): 3.9 µg/mL (≈ 9.43 µM)
MIC (Klebsiella pneumoniae): 2 µg/mL (≈ 4.84 µM)
MIC (Escherichia coli [6]): 15.6 µg/mL
Ratio (Escherichia coli [7]): 8 - 16

CN(C)CCNCc1cc2cc3c(cc2n1C)OCCc1c-3[nH]c(=O)c(C(=O)O)c1O
MIC (Escherichia coli [1]): 7.8 µg/mL (≈ 18.3 µM)
MIC (Escherichia coli [2]): > 62.5 µg/mL
MIC (Acinetobacter baumannii [4]): > 62.5 µg/mL
MIC (Acinetobacter baumannii [5]): > 62.5 µg/mL
MIC (Klebsiella pneumoniae): 31.3 µg/mL (≈ 73.4 µM)
MIC (Escherichia coli [6]): 62.5 µg/mL

Cn1c(CN2CCCC2)cc2cc3c(cc21)COCc1c-3[nH]c(=O)c(C(=O)O)c1O
MIC (Escherichia coli [1]): 0.39 µg/mL (≈ 0.953 µM)
MIC (Escherichia coli [2]): 3.1 µg/mL (≈ 7.57 µM)
MIC (Acinetobacter baumannii [4]): 12.5 µg/mL (≈ 30.5 µM)
MIC (Acinetobacter baumannii [5]): 12.5 µg/mL (≈ 30.5 µM)
MIC (Klebsiella pneumoniae): 3.1 µg/mL (≈ 7.57 µM)

CCc1c(-c2ccc3c(c2)cc(CNC(C)(C)C)n3C)[nH]c(=O)c(C(=O)O)c1O
MIC (Escherichia coli [1]): 6.3 µg/mL (≈ 15.9 µM)
MIC (Escherichia coli [2]): 0.78 µg/mL (≈ 1.96 µM)
MIC (Escherichia coli [3]): 6.3 µg/mL (≈ 15.9 µM)
MIC (Acinetobacter baumannii [4]): 0.78 µg/mL (≈ 1.96 µM)
MIC (Acinetobacter baumannii [5]): 6.3 µg/mL (≈ 15.9 µM)
MIC (Klebsiella pneumoniae): 0.78 µg/mL (≈ 1.96 µM)
MIC (Escherichia coli [6]): 1.6 µg/mL

CCc1c(-c2ccc3c(c2)cc(CNC)n3C)[nH]c(=O)c(C(=O)O)c1O
MIC (Escherichia coli [1]): 1.6 µg/mL (≈ 4.5 µM)
MIC (Escherichia coli [2]): 0.39 µg/mL (≈ 1.1 µM)
MIC (Escherichia coli [3]): 3.1 µg/mL (≈ 8.72 µM)
MIC (Acinetobacter baumannii [4]): 0.78 µg/mL (≈ 2.19 µM)
MIC (Acinetobacter baumannii [5]): 6.3 µg/mL (≈ 17.7 µM)
MIC (Klebsiella pneumoniae): 0.78 µg/mL (≈ 2.19 µM)
MIC (Escherichia coli [6]): 0.78 µg/mL

CN(C)CCNCc1cc2cc3c(cc2n1C)CCCc1c-3[nH]c(=O)c(C(=O)O)c1O
MIC (Escherichia coli [1]): 0.5 µg/mL (≈ 1.18 µM)
MIC (Escherichia coli [2]): 3.9 µg/mL (≈ 9.19 µM)
MIC (Acinetobacter baumannii [4]): 15.6 µg/mL (≈ 36.7 µM)
MIC (Acinetobacter baumannii [5]): 62.5 µg/mL (≈ 147 µM)
MIC (Klebsiella pneumoniae): 2 µg/mL (≈ 4.71 µM)
MIC (Escherichia coli [6]): 15.6 µg/mL

CNCc1cc2cc3c(cc2n1C)SCCc1c-3[nH]c(=O)c(C(=O)O)c1O
MIC (Escherichia coli [1]): 0.49 µg/mL (≈ 1.27 µM)
MIC (Escherichia coli [2]): 1 µg/mL (≈ 2.59 µM)
MIC (Escherichia coli [3]): 1.6 µg/mL (≈ 4.15 µM)
MIC (Acinetobacter baumannii [4]): 3.9 µg/mL (≈ 10.1 µM)
MIC (Acinetobacter baumannii [5]): 7.8 µg/mL (≈ 20.2 µM)
MIC (Klebsiella pneumoniae): 1 µg/mL (≈ 2.59 µM)
MIC (Escherichia coli [6]): 7.8 µg/mL
Ratio (Escherichia coli [7]): 8 - 16

Cc1c(-c2ccc3c(c2)cc(CN(C)C)n3C)[nH]c(=O)c(C(=O)O)c1O
MIC (Escherichia coli [1]): 1.6 µg/mL (≈ 4.5 µM)
MIC (Escherichia coli [2]): 6.3 µg/mL (≈ 17.7 µM)
MIC (Escherichia coli [3]): 3.1 µg/mL (≈ 8.72 µM)
MIC (Acinetobacter baumannii [4]): 6.3 µg/mL (≈ 17.7 µM)
MIC (Acinetobacter baumannii [5]): 1.6 µg/mL (≈ 4.5 µM)
MIC (Klebsiella pneumoniae): 6.3 µg/mL (≈ 17.7 µM)
MIC (Escherichia coli [6]): 12.5 µg/mL

CC(C)c1c(-c2ccc3c(c2)cc(CN(C)C)n3C)[nH]c(=O)c(C(=O)O)c1O
MIC (Escherichia coli [1]): > 62.5 µg/mL
MIC (Escherichia coli [2]): 3.1 µg/mL (≈ 8.08 µM)
MIC (Acinetobacter baumannii [4]): 15.6 µg/mL (≈ 40.7 µM)
MIC (Acinetobacter baumannii [5]): 62.5 µg/mL (≈ 163 µM)
MIC (Klebsiella pneumoniae): 3.9 µg/mL (≈ 10.2 µM)
MIC (Escherichia coli [6]): 31.3 µg/mL

CCc1c(-c2ccc3c(ccn3C)c2)[nH]c(=O)c(C(=O)O)c1O
MIC (Escherichia coli [1]): 3.1 µg/mL (≈ 9.93 µM)
MIC (Escherichia coli [2]): 0.78 µg/mL (≈ 2.5 µM)
MIC (Escherichia coli [3]): 6.3 µg/mL (≈ 20.2 µM)
MIC (Acinetobacter baumannii [4]): 0.78 µg/mL (≈ 2.5 µM)
MIC (Acinetobacter baumannii [5]): 0.78 µg/mL (≈ 2.5 µM)
MIC (Klebsiella pneumoniae): 3.1 µg/mL (≈ 9.93 µM)
MIC (Escherichia coli [6]): > 62.5 µg/mL
Ratio (Escherichia coli [7]): >40

CN(C)Cc1cc2cc(-c3cc(O)c(C(=O)O)c(=O)[nH]3)ccc2n1C
MIC (Escherichia coli [1]): > 12.5 µg/mL
MIC (Escherichia coli [2]): > 12.5 µg/mL
